Format in all cases: cell-based
The subject of assay [1] is HCT116 (Colorectal Carcinoma). Kind of assay: Cell viability analysis (WST-1), HCT116. Particulars: Homo sapiens, HCT-116, 72 h.
The subject of assay [2] is AGS (Gastric Adenocarcinoma). As to the kind of experiment: Cell viability analysis (WST-1), AGS. The following applies: 72 h.
The subject of assay [3] is MKN-45 (Gastric Adenocarcinoma). As to the kind of experiment: Cell viability analysis (WST-1), MKN-45. Particulars: Homo sapiens, MKN-45, 72 h.
Assay [4] concerns TSGH-8301 (Urinary Bladder Carcinoma). Kind of assay: Cell viability analysis (WST-1), TSGH-8301. Particulars: 72 h. (In general: Formazan colour is commonly taken as a measure of viable cells.)
The test system of assay [5] is MCF7 (Mammary Gland, Adenocarcinoma). As to the kind of experiment: Cell viability analysis (WST-1), MCF7. The following applies: Homo sapiens, MCF7, 72 h.
The subject of assay [6] is PC3 (Prostate Adenocarcinoma). Kind of assay: Cell viability analysis (WST-1), PC3. The following applies: 72 h.
A further assay has as its system AsPC-1. Kind of assay: Cell viability analysis (WST-1), AsPC-1. The following applies: Homo sapiens, ASPC1, 72 h, Table 4, repeated experiments, drug 10 μM, read-out: survival rate (viability) of cancer cells, AsPC-1. As to the method: (§1) Subculture the different types of cancer cells. The cancer cells includes lung cancer, gastric cancer, hepatic cancer, colon cancer, skin cancer, cervical cancer, prostate cancer, bladder cancer, breast cancer, leukemia, pancreatic cancer, ovarian cancer, tongue cancer, osteosarcoma, and renal cancer. The cell numbers were counted and reseed as 2×10^6 in cell culture plate/flask. Then, the culture medium for culturing the cell lines was added to a volume of 10 ml, and the cells were cultured for 2-3 days. Then, the cells were suspended for loading into 96-well plates. The cell number was 3000 cells and the volume of the culture medium was 100 ul each well.
(§2) Removing the original culture medium from 96-well plate. Then add 100 μl of commercially drug at a concentration of 10 μM per well. After 72 hours, add the diluted WST-1 reagent to the well with 100 μl/well, and the diluted WST-1 reagent was acquired from the dilution of 9:1 medium and WST-1 stock reagent. Finally, the total volume of each well are 200 μl/well. Culture the 96-well plate at 37° C. for 30 to 90 minutes. Detecting and calculating the survival rate of each cancer cells with an ELISA reader at OD450 nm. The lower viability of cancer cells represents better inhibition effect via the drugs. Otherwise, the higher viability of cancer cells represents worse inhibition effect via the drugs.
(§3) According to the above mentioned cardiovascular drugs for cancer growth inhibition in Table 3, the inventors took the repeat experiments for the cardiovascular drugs to check the growth inhibitory effects of cancer cells by the cardiovascular drugs. […] 4.

The next assay relates to BxPC-3. Kind of assay: Cell viability analysis (WST-1), BxPC-3. The following applies: Homo sapiens, BXPC-3, 72 h, Table 4, repeated experiments, drug 10 μM, read-out: survival rate (viability) of cancer cells, BxPC-3. As to the method:
as §1, §2, §3

The next assay concerns SAS. Kind of assay: Cell viability analysis (WST-1), SAS. Particulars: 72 h, Table 4, repeated experiments, drug 10 μM, read-out: survival rate (viability) of cancer cells, SAS. As to the method:
as §1, §2, §3

In the next assay the test system is BCC. Kind of assay: Cell viability analysis (WST-1), BCC. The following applies: BCC, 72 h, Table 4, repeated experiments, drug 10 μM, read-out: survival rate (viability) of cancer cells, BCC.
Assay [7] relates to A375 (Amelanotic Melanoma). As to the kind of experiment: Cell viability analysis (WST-1), A375. The following applies: Homo sapiens, A-375, 72 h.
Assay [8] deals with HepG2 (Hepatocellular Carcinoma). Kind of assay: Cell viability analysis (WST-1), HepG2. Particulars: Homo sapiens, HepG2, 72 h.
Assay [9] deals with HeLa (Cervix Adenocarcinoma). Kind of assay: Cell viability analysis (WST-1), HeLa. Particulars: Homo sapiens, HeLa, 72 h.
The test system of assay [10] is H1650 (Lung Adenocarcinoma). Kind of assay: Cell viability analysis (WST-1), H1650. Particulars: Homo sapiens, NCI-H1650, 72 h.
Assay [11] relates to A549 (Lung Adenocarcinoma). Kind of assay: Cell viability analysis (WST-1), A549. The following applies: Homo sapiens, A549, 72 h.
Assay [12] relates to LoVo (Colorectal Adenocarcinoma). Kind of assay: Cell viability analysis (WST-1), LoVo. The following applies: Homo sapiens, LoVo, 72 h.
The next assay relates to T24. As to the kind of experiment: Cell viability analysis (WST-1), T24. The following applies: Homo sapiens, T-24, 72 h, Table 4, repeated experiments, drug 10 μM, read-out: survival rate (viability) of cancer cells, T24. As to the method:
as §1, §2, §3

The next assay deals with Hep3B. Kind of assay: Cell viability analysis (WST-1), Hep3B. The following applies: Homo sapiens, Hep3B, 72 h, Table 4, repeated experiments, drug 10 μM, read-out: survival rate (viability) of cancer cells, Hep3B. Here is the method:
as §1, §2, §3

The subject of another assay is C-33A. Kind of assay: Cell viability analysis (WST-1), C-33A. Particulars: Homo sapiens, C-33-A, 72 h, Table 4, repeated experiments, drug 10 μM, read-out: survival rate (viability) of cancer cells, C-33A. Here is the method: as §1, §2, §3
Another assay has as its system NIH-OVCAR-3. As to the kind of experiment: Cell viability analysis (WST-1), NIH-OVCAR-3. Particulars: Homo sapiens, OVCAR-3, 72 h, Table 4, repeated experiments, drug 10 μM, read-out: survival rate (viability) of cancer cells, NIH-OVCAR-3. As to the method: as §1, §2, §3
Another assay concerns TOV-21G. Kind of assay: Cell viability analysis (WST-1), TOV-21G. Particulars: Homo sapiens, TOV21G, 72 h, Table 4, repeated experiments, drug 10 μM, read-out: survival rate (viability) of cancer cells, TOV-21G. As to the method:
as §1, §2, §3

The next assay relates to U2OS. Kind of assay: Cell viability analysis (WST-1), U2OS. The following applies: Homo sapiens, U2OS, 72 h, Table 4, repeated experiments, drug 10 μM, read-out: survival rate (viability) of cancer cells, U2OS. Here is the method: as §1, §2, §3
In another assay the test system is 786-O. Kind of assay: Cell viability analysis (WST-1), 786-O. The following applies: Homo sapiens, 786-0, 72 h, Table 4, repeated experiments, drug 10 μM, read-out: survival rate (viability) of cancer cells, 786-O. Here is the method:
as §1, §2, §3

Another assay relates to cancer cell lines. As to the kind of experiment: Growth inhibitory effects on the panel of cancer cell lines. Particulars: drug 10 μM, 72 hours; for inhibition effect on different cancer cell lines (in words): WST-1.
Assay [13] has as its system HL-60 (Acute Promyelocytic Leukemia). Kind of assay: Cell viability analysis (WST-1), HL-60. Particulars: Homo sapiens, HL-60; Table 3; drug 10 μM, 72 hours, WST-1, OD450 nm; read-out: survival rate (viability) of cancer cells, HL-60.
Setting [14] is: Table 4, repeated experiments, drug 10 μM, WST-1, read-out: survival rate (viability) of cancer cells, HCT116.
Setting [15] is: Table 4, repeated experiments, drug 10 μM, WST-1, read-out: survival rate (viability) of cancer cells, AGS.
[16] abbreviates: Table 4, repeated experiments, drug 10 μM, WST-1, read-out: survival rate (viability) of cancer cells, MKN-45.
[17] abbreviates: Table 4, repeated experiments, drug 10 μM, WST-1, read-out: survival rate (viability) of cancer cells, TSGH-8301.
Where [18] appears, read: Table 4, repeated experiments, drug 10 μM, WST-1, read-out: survival rate (viability) of cancer cells, MCF-7.
The mark [19] stands for this setting: Table 4, repeated experiments, drug 10 μM, WST-1, read-out: survival rate (viability) of cancer cells, PC-3.

The text below walks through data of US20170304388A1, “NEW INDICATION OF CARDIOVASCULAR DRUGS FOR PREPARATION OF CANCER INHIBITION PHARMACEUTICAL COMPOSITION” (LAUNX BIOMEDICAL CO., LTD., priority 2014, published 2017).

The structures appear in SMILES notation. Like-named read-outs stand apart in the source and are kept apart here.

In the case of `CC1=C(C(=O)OC(C)C)C(c2cccc([N+](=O)[O-])c2)C(C(=O)OC2CN(C(c3ccccc3)c3ccccc3)C2)=C(N)N1` (stereo not shown) [Azelnidipine], the viability (commonly a read-out of living cells in per cent, often relative to untreated cells) at 10 µM was found to be 111% in assay [1] (setting [14]); 90.2% in [2] (setting [15]); 139% in assay [3] (setting [16]); 115% in [4] (setting [17]); 60.8% in [5] (setting [18]); 121% in assay [6] (setting [19]). The viability at 10 µM in the assay on AsPC-1 was 53.6%; in the assay on BxPC-3, 64.6%; in the assay on SAS it was 76.8%; with BCC it was 100%.
Consider `CCCCc1nc(Cl)c(CO)n1Cc1ccc(-c2ccccc2-c2nn[nH]n2)cc1` [Losartan potassium], for which the viability at 10 µM in [7] (Table 4, repeated experiments, drug 10 μM, WST-1, read-out: survival rate (viability) of cancer cells, A375) is 96.6%; in [1] (setting [14]), 106%; in assay [8] (Table 4, repeated experiments, drug 10 μM, WST-1, read-out: survival rate (viability) of cancer cells, HepG2), 93.9%; in assay [9] (Table 4, repeated experiments, drug 10 μM, WST-1, read-out: survival rate (viability) of cancer cells, HeLa) it was 83.4%; in assay [2] (setting [15]) it was 74.1%; in [10] (Table 4, repeated experiments, drug 10 μM, WST-1, read-out: survival rate (viability) of cancer cells, H1650), 77.2%. Also, the viability at 10 µM came out at 82.8% in assay [3] (setting [16]); 92% in [4] (setting [17]); 96% in assay [11] (Table 4, repeated experiments, drug 10 μM, WST-1, read-out: survival rate (viability) of cancer cells, A549); 87.6% in [5] (setting [18]); 120% in assay [6] (setting [19]); 106% in assay [12] (Table 4, repeated experiments, drug 10 μM, WST-1, read-out: survival rate (viability) of cancer cells, LoVo). For the same compound, the viability at 10 µM was 66.3% in the assay with T24; 103% in the assay with Hep3B; 108% in the assay on C-33A; 98.7% in the assay with NIH-OVCAR-3; 78.6% in the assay with TOV-21G; 86.4% in the assay with AsPC-1. The viability at 10 µM with BxPC-3 worked out at 77.7%; in the assay on SAS, 95.7%; with U2OS, 105%; in the assay on BCC, 90.2%; in the assay on 786-O, 96.3%. Further, the “inhibition effect on different cancer cell lines (in words)” value in the assay on cancer cell lines is listed as “significant inhibition effect”.
As for `CC(=O)NS(=O)(=O)c1ccc(N)cc1` [sulfacetamide sodium], the viability at 10 µM in [7] (Table 3, drug 10 μM, WST-1, OD450 nm, lower viability = better inhibition, read-out: survival rate (viability) of cancer cells, A375) was determined as 64.9%; in assay [1] (Table 3, drug 10 μM, WST-1, OD450 nm, read-out: survival rate (viability) of cancer cells, HCT116 (WT)), 76.7%; in assay [8] (Table 3, drug 10 μM, WST-1, OD450 nm, read-out: survival rate (viability) of cancer cells, HepG2) it was 98.7%; in assay [9] (Table 3, drug 10 μM, WST-1, OD450 nm, read-out: survival rate (viability) of cancer cells, HeLa), 75.9%; in [2] (Table 3, drug 10 μM, WST-1, OD450 nm, read-out: survival rate (viability) of cancer cells, AGS), 81.4%; in assay [10] (Table 3, drug 10 μM, WST-1, OD450 nm, read-out: survival rate (viability) of cancer cells, H1650) it was 79.8%. Further, the viability at 10 µM in assay [3] (Table 3, drug 10 μM, WST-1, OD450 nm, read-out: survival rate (viability) of cancer cells, MKN-45) was 118%; in assay [4] (Table 3, drug 10 μM, WST-1, OD450 nm, read-out: survival rate (viability) of cancer cells, TSGH), 120%; in assay [11] (Table 3, drug 10 μM, WST-1, OD450 nm, read-out: survival rate (viability) of cancer cells, A549), 70%; in assay [5] (Table 3, drug 10 μM, WST-1, OD450 nm, read-out: survival rate (viability) of cancer cells, MCF7), 110%; in assay [6] (Table 3, drug 10 μM, WST-1, OD450 nm, read-out: survival rate (viability) of cancer cells, PC3), 70.8%; in [12] (Table 3, drug 10 μM, WST-1, OD450 nm, read-out: survival rate (viability) of cancer cells, LoVo), 81.8%. The viability at 10 µM in [13] amounted to 112%. For the same compound, the “Numbers of inhibitory effect on cancer cell line” value in the assay with cancer cell lines (count of cancer cell lines inhibited) was 0. For the same compound, in the assay with cancer cell lines, the “inhibition effect on different cancer cell lines (in words)” value is given as “significant inhibition effect”.
